The source of these data is patent publication US11293024B2, “Antisense antibacterial compounds and methods” (priority 2014, dated 2022).

The test system of this series is existing P. aeruginosa PAO1 biofilm. The series is described as follows: Biofilm reduction in MBEC plate (crystal violet). It is filed as cell-based, Pseudomonas aeruginosa. Particulars: at 10 and 5 μM; 2 μg/mL PMBN; 48 hour biofilm. Here is the method: P. aeruginosa PAO1 (5×10^5 cfu/mL) was grown in an MBEC plate for 24 hours. At 24 hours, the pegs were moved to a new 96-well plate containing fresh MHII media and either scrambled, RpsJ, or AcpP PPMO at the indicated concentrations. All wells containing PPMOs (including Scrambled) contained 2 μg/mL of PMBN. The pegs were again moved to new plates with or without PPMOs at 32 and 40 hours. Pegs were processed for crystal violet or visualized with microscopy at 48 hours. […] FIGS. 7B-7D: Spinning Disk confocal microscopy images of 48 hour biofilm treated with (FIG. 7B) 10 μM Scr PPMO #42, (FIG. 7C) 2.5 μM AcpP PPMO #35, (FIG. 7D) 10 μM AcpP PPMO #35. Green channel is PAO1 GFP; Red channel is biofilm stained with 200 μg/mL of Concanavalin A, Alexafluor 647 conjugate.
Pseudomonas aeruginosa Biofilm Reduction in MBEC Plate Protocol
• 1. 10 mL of MH is inoculated with a single colony and incubated at 37° C. and ˜250 rpm for about 5 hours. • 2. The sample is centrifuged for 10 minutes at ˜4000 rpm at 4° C., the supernatant decanted and the pellet resuspended in 10 mL of 150 mM NaCl or PBS. This step is repeated to wash the pellet 3 times. • 3. […] The OD600 of the sample is taken and cfu/mL is calculated. […]
1. […] The final OD570 of the 10× dilution of solution should be approximately 0.500 absorbance. […]
2. OD reading: The OD570 for the 96-well plate from step 1e is determined. […]

Consider “PPMO #14: RpsJ PMO GCATTTGACCT, 5′ TEG, 3′ (RXR)4XB CPP”, for which the “reduction of existing biofilm (crystal violet)” value is reported as “statistically significant reduction of biofilm”.
